Test system: Genes belonging to other category
Assay: DNA chip mRNA expression in yeast, genes belonging to other category (Table 9)
Type: cell-based, Saccharomyces cerevisiae S288C
Experimental: Yeast (Saccharomyces cerevisiae S288C (α SUC2mal mel gap2 CUP1)) were incubated at 25° C. on YPD medium (yeast extract 1%, polypepton 2%, glucose 2%). One of toxic chemical substances was added to the cells at logarithmic growth phase, and the cells were further incubated for two hours. Cells were cultured without any chemical substance in the same condition, and were used as control. Concentrations of the chemical substances were defined to inhibit the growth of the yeast but not lead to death.
After completion of the incubation, the culture was centrifuged to collect the cells. To the cells, sodium acetate buffer (50 mM sodium acetate, 10 mM EDTA, 1% SDS) was added, and the mixture was shaken at 65° C. for five minutes, followed by returning to room temperature, and obtaining the supernatant, of which the procedures were repeated two times. To the supernatant, ½ amount of a solution of phenol/chloroform was added, and the mixture was centrifuged to give a supernatant, which was added with an equal amount of chloroform, and the mixture was centrifuged to give a supernatant. To the supernatant, an equal amount of isopropanol containing 0.3 M sodium acetate was added, and the mixture was allowed to stand at room temperature for 30 minutes, after which the mixture was centrifuged to give a sediment of the whole RNAs. Seventy % ethanol was added to the sediment, and the mixture was again centrifuged to give a sediment, which was then dried and dissolved in water. mRNA was isolated from the whole RNAs as followings. In view of the fact that a poly A chain is attached to the 3′ terminus of mRNA, a polynucleotide having a poly T structure which was immobilized on the surface of latex beads was used to trap the mRNA, and then the mRNA was washed and eluted with spine column (Oligotex-dT30<Super>mRNA Purification Kit, Takara). Reverse transcription of the mRNA was conducted with a reverse transcriptase (Super Script II Reverse Transcriptase; catalogue No. 18064-014, GibcoBRL) using fluorescence-labeled nucleotides to give cDNAs that were introduced with Cy3-dUTP or Cy5-dUTP during the reverse transcription.
The labeled cDNAs were dissolved in TE buffer (10mM Tris-HCl/1 mM EDTA, pH8.0), and the solution was dropped on the DNA chip containing the whole genes of yeast (DNA Chip Research Inc. Japan) so that the cDNAs were hybridized on the DNA chip at 65° C. for over 12 hours. The fluoresces intensity of the DNA chip was read with a scanner, and the ratio relative to the fluorescence intensity resulting from the absence of chemical substance was estimated as the following, which is shown in Tables 1 to 9: […]

SMILES: N#Cc1c(Cl)c(Cl)c(Cl)c(C#N)c1Cl [(9), 2,4,5,6-tetrachloro-1,3-benzenedicarbonitrile]
- The level of expressed mRNA in the presence of chemical substance/The level of expressed mRNA in the absence of chemical substance (yeast gene YJR091C): 2.4
- The level of expressed mRNA in the presence of chemical substance/The level of expressed mRNA in the absence of chemical substance (yeast gene YJR099W): 1.4
- The level of expressed mRNA in the presence of chemical substance/The level of expressed mRNA in the absence of chemical substance (yeast gene YJR110W): 4.9
- The level of expressed mRNA in the presence of chemical substance/The level of expressed mRNA in the absence of chemical substance (yeast gene YJR122W): 5.3
- The level of expressed mRNA in the presence of chemical substance/The level of expressed mRNA in the absence of chemical substance (yeast gene YKL008C): 0.3
- The level of expressed mRNA in the presence of chemical substance/The level of expressed mRNA in the absence of chemical substance (yeast gene YKL013C): 1.5
- The level of expressed mRNA in the presence of chemical substance/The level of expressed mRNA in the absence of chemical substance (yeast gene YKL039W): 1.3
- The level of expressed mRNA in the presence of chemical substance/The level of expressed mRNA in the absence of chemical substance (yeast gene YKL041W): 1.6
- The level of expressed mRNA in the presence of chemical substance/The level of expressed mRNA in the absence of chemical substance (yeast gene YKL079W): 2.3
- The level of expressed mRNA in the presence of chemical substance/The level of expressed mRNA in the absence of chemical substance (yeast gene YKL096W): 0.0
- The level of expressed mRNA in the presence of chemical substance/The level of expressed mRNA in the absence of chemical substance (yeast gene YKL139W): 1.6
- The level of expressed mRNA in the presence of chemical substance/The level of expressed mRNA in the absence of chemical substance (yeast gene YKL165C): 0.4
- The level of expressed mRNA in the presence of chemical substance/The level of expressed mRNA in the absence of chemical substance (yeast gene YKL193C): 1.0
- The level of expressed mRNA in the presence of chemical substance/The level of expressed mRNA in the absence of chemical substance (yeast gene YKL196C): 4.3
- The level of expressed mRNA in the presence of chemical substance/The level of expressed mRNA in the absence of chemical substance (yeast gene YKR014C): 2.4
- The level of expressed mRNA in the presence of chemical substance/The level of expressed mRNA in the absence of chemical substance (yeast gene YKR068C): 2.4
- The level of expressed mRNA in the presence of chemical substance/The level of expressed mRNA in the absence of chemical substance (yeast gene YLL054C): 2.4
- The level of expressed mRNA in the presence of chemical substance/The level of expressed mRNA in the absence of chemical substance (yeast gene YLR080W): 2.3
- The level of expressed mRNA in the presence of chemical substance/The level of expressed mRNA in the absence of chemical substance (yeast gene YLR093C): 1.5
- The level of expressed mRNA in the presence of chemical substance/The level of expressed mRNA in the absence of chemical substance (yeast gene YLR118C): 1.1
- The level of expressed mRNA in the presence of chemical substance/The level of expressed mRNA in the absence of chemical substance (yeast gene YLR120C): 1.8
- The level of expressed mRNA in the presence of chemical substance/The level of expressed mRNA in the absence of chemical substance (yeast gene YLR136C): 0.9
- The level of expressed mRNA in the presence of chemical substance/The level of expressed mRNA in the absence of chemical substance (yeast gene YLR178C): 4.3
- The level of expressed mRNA in the presence of chemical substance/The level of expressed mRNA in the absence of chemical substance (yeast gene YLR206W): 1.5
- The level of expressed mRNA in the presence of chemical substance/The level of expressed mRNA in the absence of chemical substance (yeast gene YLR248W): 2.3
- The level of expressed mRNA in the presence of chemical substance/The level of expressed mRNA in the absence of chemical substance (yeast gene YLR250W): 2.7
- The level of expressed mRNA in the presence of chemical substance/The level of expressed mRNA in the absence of chemical substance (yeast gene YLR251W): 2.1
- The level of expressed mRNA in the presence of chemical substance/The level of expressed mRNA in the absence of chemical substance (yeast gene YLR327C): 3.0
- The level of expressed mRNA in the presence of chemical substance/The level of expressed mRNA in the absence of chemical substance (yeast gene YLR356W): 2.3
- The level of expressed mRNA in the presence of chemical substance/The level of expressed mRNA in the absence of chemical substance (yeast gene YLR362W): 3.5
- The level of expressed mRNA in the presence of chemical substance/The level of expressed mRNA in the absence of chemical substance (yeast gene YLR389C): 2.4
- The level of expressed mRNA in the presence of chemical substance/The level of expressed mRNA in the absence of chemical substance (yeast gene YLR391W): 0.4
- The level of expressed mRNA in the presence of chemical substance/The level of expressed mRNA in the absence of chemical substance (yeast gene YLR429W): 0.9
- The level of expressed mRNA in the presence of chemical substance/The level of expressed mRNA in the absence of chemical substance (yeast gene YMR004W): 94.2
- The level of expressed mRNA in the presence of chemical substance/The level of expressed mRNA in the absence of chemical substance (yeast gene YMR027W): 1.1
- The level of expressed mRNA in the presence of chemical substance/The level of expressed mRNA in the absence of chemical substance (yeast gene YMR053C): 2.2
- The level of expressed mRNA in the presence of chemical substance/The level of expressed mRNA in the absence of chemical substance (yeast gene YMR077C): 1.9
- The level of expressed mRNA in the presence of chemical substance/The level of expressed mRNA in the absence of chemical substance (yeast gene YMR091C): 2.1
- The level of expressed mRNA in the presence of chemical substance/The level of expressed mRNA in the absence of chemical substance (yeast gene YMR094W): −0.1
- The level of expressed mRNA in the presence of chemical substance/The level of expressed mRNA in the absence of chemical substance (yeast gene YMR104C): 0.6
- The level of expressed mRNA in the presence of chemical substance/The level of expressed mRNA in the absence of chemical substance (yeast gene YMR110C): 2.3
- The level of expressed mRNA in the presence of chemical substance/The level of expressed mRNA in the absence of chemical substance (yeast gene YMR112C): 1.4
- The level of expressed mRNA in the presence of chemical substance/The level of expressed mRNA in the absence of chemical substance (yeast gene YMR139W): 2.8
- The level of expressed mRNA in the presence of chemical substance/The level of expressed mRNA in the absence of chemical substance (yeast gene YMR197C): 1.9
- The level of expressed mRNA in the presence of chemical substance/The level of expressed mRNA in the absence of chemical substance (yeast gene YMR219W): 2.3
- The level of expressed mRNA in the presence of chemical substance/The level of expressed mRNA in the absence of chemical substance (yeast gene YMR226C): 2.6
- The level of expressed mRNA in the presence of chemical substance/The level of expressed mRNA in the absence of chemical substance (yeast gene YMR238W): 1.3
- The level of expressed mRNA in the presence of chemical substance/The level of expressed mRNA in the absence of chemical substance (yeast gene YMR262W): 3.0
- The level of expressed mRNA in the presence of chemical substance/The level of expressed mRNA in the absence of chemical substance (yeast gene YMR275C): 2.4
- The level of expressed mRNA in the presence of chemical substance/The level of expressed mRNA in the absence of chemical substance (yeast gene YMR276W): 1.8
